Assay results from ChEMBL document CHEMBL4184109, “Design, synthesis, and structure-activity relationship studies of novel tetrazole antifungal agents with potent activity, broad antifungal spectrum and high selectivity” (Bioorg Med Chem Lett, 2018).
Converted amounts (≈) assume the structure as drawn.

What was measured:
Assay type in all cases: functional
Candida albicans [1] = assay: Antifungal activity against Candida albicans Y0109 after 24 hrs by serial dilution method; conditions: Y0109, 24 h
Candida parapsilosis = assay: Antifungal activity against Candida parapsilosis ATCC 22019 after 24 hrs by serial dilution method; conditions: Lodderomyces parapsilosis, ATCC 22019, 24 h
Nannizzia gypsea = assay: Antifungal activity against Microsporum gypseum by serial dilution method
Candida albicans [2] = assay: Antifungal activity against Candida albicans SC5314 after 24 hrs by serial dilution method; conditions: SC5314, 24 h
Nakaseomyces glabratus = assay: Antifungal activity against Candida glabrata after 24 hrs by serial dilution method
Trichophyton rubrum = assay: Antifungal activity against Trichophyton rubrum by serial dilution method
Aspergillus fumigatus = assay: Antifungal activity against Aspergillus fumigatus after 48 hrs by serial dilution method
Cryptococcus neoformans = assay: Antifungal activity against Cryptococcus neoformans after 72 hrs by serial dilution method

| Structure (SMILES) | MIC80 (Candida albicans [1]) [mg/L] | MIC80 (Candida parapsilosis) [mg/L] | MIC80 (Nannizzia gypsea) [mg/L] | MIC80 (Candida albicans [2]) [mg/L] | MIC80 (Nakaseomyces glabratus) [mg/L] | MIC80 (Trichophyton rubrum) [mg/L] | MIC80 (Aspergillus fumigatus) [mg/L] | MIC80 (Cryptococcus neoformans) [mg/L] |
| --- | --- | --- | --- | --- | --- | --- | --- | --- |
| COC1CCC(n2ncn(-c3ccc(C(F)(F)C(O)(Cn4cnnn4)c4ccc(F)cc4F)nc3)c2=O)CC1 (centres undefined) | 0.5 (≈ 0.912 µM) | 1 (≈ 1.82 µM) | > 64 | 1 (≈ 1.82 µM) | 4 (≈ 7.29 µM) | 8 (≈ 14.6 µM) | > 64 | 1 (≈ 1.82 µM) |
| O=c1n(-c2ccc(C(F)(F)C(O)(Cn3cnnn3)c3ccc(F)cc3F)nc2)cnn1CC1CCCCC1 (centres undefined) | 0.5 (≈ 0.939 µM) | 0.25 (≈ 0.469 µM) | 4 (≈ 7.51 µM) | 1 (≈ 1.88 µM) | 1 (≈ 1.88 µM) | 2 (≈ 3.76 µM) | > 64 | 1 (≈ 1.88 µM) |
| O=c1n(-c2ccc(C(F)(F)C(O)(Cn3cnnn3)c3ccc(F)cc3F)nc2)cnn1CCC1CCCCC1 (centres undefined) | 0.5 (≈ 0.915 µM) | 0.5 (≈ 0.915 µM) | 4 (≈ 7.32 µM) | 1 (≈ 1.83 µM) | 1 (≈ 1.83 µM) | 8 (≈ 14.6 µM) | > 64 | 4 (≈ 7.32 µM) |
| O=c1n(-c2ccc(C(F)(F)C(O)(Cn3cnnn3)c3ccc(F)cc3F)nc2)cnn1C1CCCCCCC1 (centres undefined) | 1 (≈ 1.83 µM) | 2 (≈ 3.66 µM) | > 64 | 2 (≈ 3.66 µM) | 4 (≈ 7.32 µM) | 1 (≈ 1.83 µM) | > 64 | 2 (≈ 3.66 µM) |
| O=c1n(-c2ccc(C(F)(F)C(O)(Cn3cnnn3)c3ccc(F)cc3F)nc2)cnn1C1CCCCCC1 (centres undefined) | 0.5 (≈ 0.939 µM) | 0.5 (≈ 0.939 µM) | > 64 | 1 (≈ 1.88 µM) | 1 (≈ 1.88 µM) |  | > 64 | 0.5 (≈ 0.939 µM) |
| CC1CCC(n2ncn(-c3ccc(C(F)(F)C(O)(Cn4cnnn4)c4ccc(F)cc4F)nc3)c2=O)CC1 (centres undefined) | 1 (≈ 1.88 µM) | 1 (≈ 1.88 µM) | > 64 | 2 (≈ 3.76 µM) | 2 (≈ 3.76 µM) | 0.5 (≈ 0.939 µM) | > 64 | 1 (≈ 1.88 µM) |
| O=c1n(-c2ccc(C(F)(F)C(O)(Cn3cnnn3)c3ccc(F)cc3F)nc2)cnn1C1CCC1 (centres undefined) | 0.25 (≈ 0.51 µM) | 0.5 (≈ 1.02 µM) | > 64 | 1 (≈ 2.04 µM) | 1 (≈ 2.04 µM) | 8 (≈ 16.3 µM) | > 64 | 0.5 (≈ 1.02 µM) |
| O=c1n(-c2ccc(C(F)(F)C(O)(Cn3cnnn3)c3ccc(F)cc3F)nc2)cnn1Cc1cccnc1 (centres undefined) | 4 (≈ 7.58 µM) | 8 (≈ 15.2 µM) |  | 8 (≈ 15.2 µM) | 4 (≈ 7.58 µM) |  | > 64 | 2 (≈ 3.79 µM) |
| O=c1n(-c2ccc(C(F)(F)C(O)(Cn3cnnn3)c3ccc(F)cc3F)nc2)cnn1Cc1ccc(Cl)cc1 (centres undefined) | 1 (≈ 1.78 µM) | 0.5 (≈ 0.891 µM) |  | 1 (≈ 1.78 µM) | 2 (≈ 3.57 µM) |  | > 8 | 1 (≈ 1.78 µM) |
| O=C1CCCCC1n1ncn(-c2ccc(C(F)(F)C(O)(Cn3cnnn3)c3ccc(F)cc3F)nc2)c1=O (centres undefined) | 4 (≈ 7.51 µM) | 2 (≈ 3.76 µM) |  | > 8 | > 8 |  | > 8 | > 8 |
| CC(C)(O)Cn1ncn(-c2ccc(C(F)(F)C(O)(Cn3cnnn3)c3ccc(F)cc3F)nc2)c1=O (centres undefined) | > 8 | 4 (≈ 7.87 µM) |  | > 8 | > 8 |  | > 8 | > 8 |
| CC1(C)CCC(n2ncn(-c3ccc(C(F)(F)C(O)(Cn4cnnn4)c4ccc(F)cc4F)nc3)c2=O)CC1 (centres undefined) | 4 (≈ 7.32 µM) | 4 (≈ 7.32 µM) | > 64 | 4 (≈ 7.32 µM) | 8 (≈ 14.6 µM) | 0.125 (≈ 0.229 µM) | > 64 | 4 (≈ 7.32 µM) |
| COCCOc1ccc(Cn2ncn(-c3ccc(C(F)(F)C(O)(Cn4cnnn4)c4ccc(F)cc4F)nc3)c2=O)cc1 (centres undefined) | 1 (≈ 1.67 µM) | 2 (≈ 3.33 µM) |  | 1 (≈ 1.67 µM) | 2 (≈ 3.33 µM) |  | > 64 | 0.5 (≈ 0.833 µM) |
| N#Cc1ccc(Cn2ncn(-c3ccc(C(F)(F)C(O)(Cn4cnnn4)c4ccc(F)cc4F)nc3)c2=O)cc1 (centres undefined) | 1 (≈ 1.81 µM) | 0.5 (≈ 0.907 µM) |  | 2 (≈ 3.63 µM) | 4 (≈ 7.25 µM) |  | > 8 | 4 (≈ 7.25 µM) |
| O=c1n(-c2ccc(C(F)(F)C(O)(Cn3cnnn3)c3ccc(F)cc3F)nc2)cnn1Cc1ccc(OC(F)(F)F)cc1 (centres undefined) | 1 (≈ 1.64 µM) | 0.5 (≈ 0.819 µM) |  | 1 (≈ 1.64 µM) | 4 (≈ 6.55 µM) |  | > 8 | 2 (≈ 3.28 µM) |
| OC(Cn1cncn1)(Cn1cncn1)c1ccc(F)cc1F [FLUCONAZOLE] | 2 (≈ 6.53 µM) | 1 (≈ 3.27 µM) | 8 (≈ 26.1 µM) | 0.5 (≈ 1.63 µM) | 0.5 (≈ 1.63 µM) | 2 (≈ 6.53 µM) | > 64 | 0.5 (≈ 1.63 µM) |
| O=c1n(-c2ccc(C(F)(F)C(O)(Cn3cnnn3)c3ccc(F)cc3F)nc2)cnn1C1CCC(F)(F)CC1 (centres undefined) | 0.5 (≈ 0.902 µM) | 0.5 (≈ 0.902 µM) | > 64 | 1 (≈ 1.8 µM) | 2 (≈ 3.61 µM) | 2 (≈ 3.61 µM) | > 64 | 0.5 (≈ 0.902 µM) |
| COc1ccc(Cn2ncn(-c3ccc(C(F)(F)C(O)(Cn4cnnn4)c4ccc(F)cc4F)nc3)c2=O)cc1 (centres undefined) | 0.5 (≈ 0.899 µM) | 0.25 (≈ 0.449 µM) |  | 0.5 (≈ 0.899 µM) | 2 (≈ 3.59 µM) |  | > 8 | 2 (≈ 3.59 µM) |
| O=c1n(-c2ccc(C(F)(F)C(O)(Cn3cnnn3)c3ccc(F)cc3F)nc2)cnn1Cc1ccc(C(F)(F)F)cc1 (centres undefined) | 1 (≈ 1.68 µM) | 0.5 (≈ 0.841 µM) |  | 2 (≈ 3.36 µM) | 4 (≈ 6.73 µM) |  | > 8 | 4 (≈ 6.73 µM) |
| CC(C)C1CCC(n2ncn(-c3ccc(C(F)(F)C(O)(Cn4cnnn4)c4ccc(F)cc4F)nc3)c2=O)CC1 (centres undefined) | 8 (≈ 14.3 µM) | 16 (≈ 28.5 µM) | > 64 | 16 (≈ 28.5 µM) | 16 (≈ 28.5 µM) | 1 (≈ 1.78 µM) | > 64 | 16 (≈ 28.5 µM) |
| O=c1n(-c2ccc(C(F)(F)C(O)(Cn3cnnn3)c3ccc(F)cc3F)nc2)cnn1CC1CC1 (centres undefined) | 0.5 (≈ 1.02 µM) | 0.25 (≈ 0.51 µM) |  | 0.5 (≈ 1.02 µM) | 4 (≈ 8.16 µM) |  | > 8 | 4 (≈ 8.16 µM) |
| O=c1n(-c2ccc(C(F)(F)C(O)(Cn3cnnn3)c3ccc(F)cc3F)nc2)cnn1C1CC=CCC1 (centres undefined) | 0.5 (≈ 0.968 µM) | 0.125 (≈ 0.242 µM) | 8 (≈ 15.5 µM) | 0.5 (≈ 0.968 µM) | 1 (≈ 1.94 µM) | 2 (≈ 3.87 µM) | > 64 | 1 (≈ 1.94 µM) |
| CC(C)n1ncn(-c2ccc(C(F)(F)C(O)(Cn3cnnn3)c3ccc(F)cc3F)nc2)c1=O (centres undefined) | 1 (≈ 2.09 µM) | 0.5 (≈ 1.05 µM) |  | 1 (≈ 2.09 µM) | 2 (≈ 4.18 µM) |  | > 8 | 8 (≈ 16.7 µM) |
| O=c1n(-c2ccc(C(F)(F)C(O)(Cn3cnnn3)c3ccc(F)cc3F)nc2)cnn1Cc1ccncc1 (centres undefined) | 4 (≈ 7.58 µM) | 8 (≈ 15.2 µM) |  | 4 (≈ 7.58 µM) | 4 (≈ 7.58 µM) |  | > 64 | 2 (≈ 3.79 µM) |
| CCn1ncn(-c2ccc(C(F)(F)C(O)(Cn3cnnn3)c3ccc(F)cc3F)nc2)c1=O (centres undefined) | 2 (≈ 4.31 µM) | 2 (≈ 4.31 µM) |  | 2 (≈ 4.31 µM) | 8 (≈ 17.2 µM) |  | > 8 | 8 (≈ 17.2 µM) |
| CSc1ccc(Cn2ncn(-c3ccc(C(F)(F)C(O)(Cn4cnnn4)c4ccc(F)cc4F)nc3)c2=O)cc1 (centres undefined) | 4 (≈ 6.99 µM) | 4 (≈ 6.99 µM) |  | 4 (≈ 6.99 µM) | 4 (≈ 6.99 µM) |  | > 64 | 2 (≈ 3.49 µM) |
